In patent US10584115B2, “Substituted pyridine and pyrazine BMI-1 inhibitors” (PTC Therapeutics, Inc., priority 2013, dated 2020):

Assays:
[1] = tested on: Bmi-1 protein; test: Sandwich ELISA Assay (Bmi-1 protein level in HT-1080 cells after compound treatment); assay type: cell-based; conditions: Table 1, Bmi-1 sandwich ELISA, read-out: ELISA EC50 value for Bmi-1 protein
How it was run: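 Sandwich ELISA quantified Bmi-1 protein against recombinant standard (125–8000 pg/mL), with lysates captured overnight at 4 °C and signal by HRP/TMB at 450 nm (570 nm reference). Lysates came from HT-1080 cells incubated 40–48 h with test compounds in 0.5% DMSO.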

| SMILES | EC50 [1] | melting point |
| --- | --- | --- |
| Cc1nc2ccc(F)cn2c1-c1cncc(Nc2ccccc2F)n1 [compound 598, 6-(6-fluoro-2-methylimidazo[1,2-a]pyridin-3-yl)-N-(2-fluorophenyl)pyrazin-2-amine] | 0.1 to 3 µM | 218 to 220 °C |
| CCc1nc2ccc(F)cc2n1-c1cncc(Nc2ccc(OC)cc2)n1 [compound 621, 6-(2-ethyl-6-fluoro-1H-benzimidazol-1-yl)-N-(4-methoxyphenyl)pyrazin-2-amine] | < 0.001 µM | 218 to 220 °C |
| CCc1nc2ccc(F)cc2n1-c1cncc(Nc2ccc(C)cc2)n1 [compound 622, 6-(2-ethyl-6-fluoro-1H-benzimidazol-1-yl)-N-(4-methylphenyl)pyrazin-2-amine] | 0.001 to 0.01 µM | 223 to 226 °C |
| CCc1nc2ccc(F)cc2n1-c1cncc(Nc2ccc(Cl)cc2)n1 [compound 623, N-(4-chlorophenyl)-6-(2-ethyl-6-fluoro-1H-benzimidazol-1-yl)pyrazin-2-amine] | 0.001 to 0.01 µM | 252 to 255 °C |
| CCc1nc2ccc(F)cc2n1-c1cncc(Nc2cccc(OC)c2)n1 [compound 624, 6-(2-ethyl-6-fluoro-1H-benzimidazol-1-yl)-N-(3-methoxyphenyl)pyrazin-2-amine] | 0.01 to 0.1 µM | 179 to 181 °C |
| CCc1nc2ccc(F)cc2n1-c1cncc(Nc2cccc(Cl)c2)n1 [compound 625, N-(3-chlorophenyl)-6-(2-ethyl-6-fluoro-1H-benzimidazol-1-yl)pyrazin-2-amine] | 0.1 to 3 µM | 192 to 195 °C |
| CCc1nc2ccc(F)cc2n1-c1cncc(Nc2cccc(F)c2)n1 [compound 626, 6-(2-ethyl-6-fluoro-1H-benzimidazol-1-yl)-N-(3-fluorophenyl)pyrazin-2-amine] | 0.1 to 3 µM | 228 to 230 °C |
| Cc1ccc(Nc2cncc(-c3c(C)noc3C)n2)cc1 [compound 635, 6-(3,5-dimethyl-1,2-oxazol-4-yl)-N-(4-methylphenyl)pyrazin-2-amine] | 0.001 to 0.01 µM | 186 to 188 °C |
| COc1ccc(Nc2cncc(-c3c(C)noc3C)n2)cc1 [compound 636, 6-(3,5-dimethyl-1,2-oxazol-4-yl)-N-(4-methoxyphenyl)pyrazin-2-amine] | 0.01 to 0.1 µM | 154 to 155 °C |
| COc1ccc(Nc2cncc(-c3c(C)noc3C)n2)cc1F [compound 637, 6-(3,5-dimethyl-1,2-oxazol-4-yl)-N-(3-fluoro-4-methoxyphenyl)pyrazin-2-amine] | 0.01 to 0.1 µM | 158 to 159 °C |
| COc1ccc(Nc2cncc(-c3c(C)noc3C)n2)cn1 [compound 638, 6-(3,5-dimethyl-1,2-oxazol-4-yl)-N-(6-methoxypyridin-3-yl)pyrazin-2-amine] | 0.1 to 3 µM | 173 to 174 °C |
| Cc1noc(C)c1-c1cncc(Nc2ccc3c(c2)OCO3)n1 [compound 639, N-(1,3-benzodioxol-5-yl)-6-(3,5-dimethyl-1,2-oxazol-4-yl)pyrazin-2-amine] | 0.1 to 3 µM | 185 to 186 °C |
| Cc1nc2ccc(F)cn2c1-c1cc(C#N)cc(Nc2ccccc2)n1 [compound 646, 2-(6-fluoro-2-methylimidazo[1,2-a]pyridin-3-yl)-6-(phenylamino)pyridine-4-carbonitrile] | 0.1 to 3 µM | 176 to 178 °C |
| Cc1nc2ccc(F)cn2c1-c1cc(C#N)cc(Nc2ccc(Cl)cc2)n1 [compound 647, 2-[(4-chlorophenyl)amino]-6-(6-fluoro-2-methylimidazo[1,2-a]pyridin-3-yl)pyridine-4-carbonitrile] | 0.01 to 0.1 µM | 148 to 151 °C |
| Cc1ccc(Nc2cc(C#N)cc(-c3c(C)nc4ccc(F)cn34)n2)cc1 [compound 648, 2-(6-fluoro-2-methylimidazo[1,2-a]pyridin-3-yl)-6-[(4-methylphenyl)amino}pyridine-4-carbonitrile] | 0.001 to 0.01 µM | 185 to 188 °C |
| COc1ccc(Nc2cc(C#N)cc(-c3c(C)nc4ccc(F)cn34)n2)cc1 [compound 649, 2-(6-fluoro-2-methylimidazo[1,2-a]pyridin-3-yl)-6-[(4-methoxyphenyl)amino}pyridine-4-carbonitrile] | 0.001 to 0.01 µM | 190 to 192 °C |
| COc1cccc(Nc2cc(C#N)cc(-c3c(C)nc4ccc(F)cn34)n2)c1 [compound 650, 2-(6-fluoro-2-methylimidazo[1,2-a]pyridin-3-yl)-6-[(3-methoxyphenyl)amino}pyridine-4-carbonitrile] | 0.1 to 3 µM | 247 to 250 °C |
